Here are results for four molecules from patent publication US20080227799A1, “CXCR4 Antagonists Including Heteroatoms for the Treatment of Medical Disorders” (priority 2006, published 2008).

“Also recorded” adds a separate entry of the source.

In general, IC50 refers to the concentration that inhibits the measured activity by half.

Series [1] relates to CXCR4/SDF-1-mediated Erk1/2 phosphorylation. The series is described as follows: SDF-1-stimulated Erk1/2 phosphorylation. It is filed as cell-based. To be noted: data not shown. The procedure:
(§1) CXCR4/SDF-1 interaction activates PI3K/Akt and Ras/Raf/MEK/Erk pathways in a Gαi protein (PTX-sensitive)-dependent manner. Experiments were conducted to determine the effect of blocking CXCR4/SDF-1 interaction by either TN14003 or AMD3100 at different concentrations (0, 0.01, 0.1, 1, 10, 100, 1000 nM) on phosphorylations of Akt and Erk1/2 signaling. Incubating cells with 100 ng/ml of SDF-1 for 30 minutes activated Akt. […] However, the increase in Erk1/2 phosphorylation by SDF-1 was not significant as the increase in Akt phosphorylation.

In series [2] the target is T1, CXCR4 (Homo sapiens, UniProt P61073).
T1 construct: endogenous in cells; probably MDA-MB-231
T1 sequence (P61073 whole entry): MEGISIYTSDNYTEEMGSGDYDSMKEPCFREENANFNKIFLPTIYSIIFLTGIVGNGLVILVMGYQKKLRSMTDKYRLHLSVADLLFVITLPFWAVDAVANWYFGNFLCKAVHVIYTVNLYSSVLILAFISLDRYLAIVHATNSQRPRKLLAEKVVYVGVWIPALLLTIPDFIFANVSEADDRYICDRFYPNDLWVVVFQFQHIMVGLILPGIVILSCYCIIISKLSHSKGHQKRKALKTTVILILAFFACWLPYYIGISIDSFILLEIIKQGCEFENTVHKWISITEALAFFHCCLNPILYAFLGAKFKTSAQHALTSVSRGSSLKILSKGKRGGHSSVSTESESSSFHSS
Description: Competition assay using biotin-labeled TN14003 and streptavidin-conjugated rhodamine on tumor cells. It is filed as binding. From the text: In a separate embodiment, a process for screening potential drug candidates is provided. The process includes providing a labeled peptide-based CXCR4 antagonist that has a detectable signal when bound to a CXCR4 receptor; contacting a CXCR4 receptor with at least one test molecule at a known concentration to form a test sample; contacting the test sample with the peptide-based antagonist; separately, contacting the peptide-based antagonist to a sample not including any test molecule to form a control sample; and comparing the signal from the test sample to the signal from the control sample. In a specific subembodiment, the peptide-based antagonist is derived from TN14003 (described in PCT Publication No. WO 04/087068 to Emory University). In a further subembodiment, the antagonist is labeled with a biotin molecule and the signal is elicited when the biotin-labeled antagonist is contacted with a streptavadin-conjugated signal molecule.
The peptide-based antagonist is typically a molecule with high affinity for the receptor. In one embodiment, the molecule is derived from the “T140” peptide antagonists. In a specific embodiment, the antagonist is TN14003 (described in PCT Publication No. WO 04/087068 to Emory University). The receptor is typically expressed in a cell line. The process can be performed as a dose-response curve. In this embodiment, the test compound is incubated with the receptor at varying concentrations and the signal elicited after binding of the labeled antagonist is measured and compared to control, as well as to each other.
Using biotin-labeled TN14003 along with streptavidin-conjugated rhodamine allowed a determination of the binding efficiency of these chemicals to the SDF-1 binding site of CXCR4 on tumor cells and compared it to AMD3100-SDF-1 interactions (FIG. 7). […] Cells were pre-incubated with different concentrations of AMD3100. […] Therefore, one of these compounds, WZZL811S, was selected to study its therapeutic potential based on potency and low toxicity to cells (FIG. 9).

Series [3] concerns CXCR4. The series is described as follows: CXCR4 protein levels after treating cells. It is filed as cell-based. To be noted: treated cells.
In series [4] the test system is CXCR4/SDF-1-mediated Akt activation. Description: SDF-1-stimulated Akt phosphorylation in MDA-MB-231 cells (western blot). It is filed as cell-based. To be noted: for concentration blocking Akt activation: 100 ng/ml SDF-1, 30 minutes, 0-1000 nM tested; for SDF-1-stimulated phosphorylation of Akt: MDA-MB-231 cells, 100 ng/ml SDF-1, 30 min, dose-dependent. The method, then:
as §1
Background: In western blotting, separated proteins are transferred to a membrane and probed.

The conditions of series [5]: withdrawn from clinical trials; cited from earlier work.
The test system of the next series is SHIV. Description: SHIV infection of model cells, p27 antigen capture. It is filed as cell-based. To be noted: 0.1, 1, 10 or 100 nM drug prior to infection. The procedure:
The effect of the test compounds on HIV infection in model cells was analyzed by p27 antigen capture using SHIV infected cells. Cells were incubated with 0, 0.1, 1, 10 or 100 nM drug prior to infection with SHIV. Viral titer was measured after infection by analyzing levels of p27 antigen. […] The inhibition was measurable at 2 days, and continued to 5 day incubations.

Series [6] has as its system MDA-MB-231 cells. Description: Matrigel invasion assay, CXCR4/SDF-1-mediated invasion. As to conditions: 2 nM. It is filed as cell-based. The method, then:
Lowering CXCR4 mRNA levels by siRNAs inhibited CXCR4/SDF-1-mediated invasion as measured by a matrigel invasion assay. The CXCR4 ligand, SDF-1 (400 ng/ml) was added to the lower chamber to attract CXCR4-positive breast cancer cells to migrate through the matrigel. The invasion of MDA-MB-231 cells transfected with siRNA1 decreased to 39±4% of the control cells, 51±8% with siRNA2, and only 16±6% with both siRNA1+2 (FIG. 3A).
WZZL811S was tested in a matrigel invasion assay to determine whether it can inhibit CXCR4/SDF-1-mediated invasion.

Series [7] relates to human umbilical vein endothelial cells (HUVECs). Description: Endothelial capillary tube formation assay. It is filed as cell-based. As to conditions: 100 nM; SDF-1 100 ng/ml; 18 hours. The procedure:
The anti-angiogenic effect of test compounds was measured by analyzing endothelial cell growth and tube formation. The angiogenic effect of SDF-1 (100 ng/ml) on capillary formation by human umbilical vein endothelial cells (HUVECs) was examined in vitro using Matrigel-coated 24-well plates precoated with Matrigel and incubated for 18 hours. The angiogenic effect of SDF-1 was inhibited by either 100 nM TN14003 (peptide-based CXCR4 antagonist) or WZZL811S treatment (FIG. 14a, graph FIG. 14b).

The test system of a further series is metastatic 686LN cells. The series is described as follows: 686LN head & neck cancer metastasis model, tail vein injection, FDG-PET. In kind it is in vivo. To be noted: 20 mg/mouse/twice weekly; thirty days. The method, then:
The metastatic 686LN cells were injected intravenously through the tail vein to generate experimental animal models for Head & Neck cancer metastasis, modulated via CXCR4. […] These 3-D projection images show lung metastases well (bone mets and liver mets were apparent in axial section images of mice in control groups, data not shown).

The test system of series [8] is MDA-MB-231 cells. The series is described as follows: Cell viability of MDA-MB-231 cells. As to conditions: 100 μM (the highest concentration tested). It is filed as cell-based.
Another series concerns MT-4 cells. To be noted: cited from earlier work.
The test system of another series is HIV. As to conditions: MT-4 cells; read-out: concentration required for 50% protection of HIV-induced cytopathogenicity; cited from earlier work. (In general: Protection from cytopathic effect is a common read-out in antiviral testing.)
In series [9] the target is T1, CXCR4. The series is described as follows: Immunofluorescence of biotin-labeled TN14003 on MDA-MB-231 cells preincubated with SDF-1. It is filed as binding. To be noted: 400 ng/ml SDF-1, 10 min. The method, then: Initially, experiments were performed to verify that TN14003 binds to the predicted SDF-1 binding sites on the CXCR4 receptor. In these studies, MDA-MB-231 cells were incubated in the absence (FIG. 1A, B) or presence (FIG. 1A, C) of 400 ng/ml of SDF-1α for 10 min, and then fixed in ice-cold acetone. Immunofluorescence of the biotin-labeled TN14003 was negative in both membrane and cytosol in the cells pretreated with SDF-1α for 10 min (FIG. 1A, C).

Regarding `C1=CC(CN2CCCNCCNCCCNCC2)CC=C1CN1CCCNCCNCCCNCC1` (stereo not shown) [AMD3100], the “concentration attenuating Erk1/2 phosphorylation” value in series [1] was 100 nM. For the same molecule, the “concentration needed to compete against biotin-labeled TN14003” value at CXCR4 [2] (cells pre-incubated with different concentrations) stood at 10 µM. Moreover, in the series on CXCR4 [3], the “effect on CXCR4 protein levels” value was “did not affect”. Further, in series [4], the “concentration blocking Akt activation” value is “a few nano molar” and the “SDF-1-stimulated phosphorylation of Akt” value is given as “blocked”. In addition, the “side effect in clinical study” value in series [5] was “cardiac-related side effect”.

In the case of `c1cnc(NCc2ccc(CNc3ncccn3)cc2)nc1` [WZ40], the “SHIV infection (p27 antigen levels)” value in the series on SHIV was “inhibited SHIV infection at all concentrations tested”.

As to `c1ccc(NCc2ccc(CNc3ccccn3)cc2)nc1` [WZZL811S], the “CXCR4/SDF-1 mediated invasion of MDA-MB-231” value in the series on MDA-MB-231 cells [6] is recorded as “as potent as TN14003; also recorded: blocked”. Also, the concentration for half-maximal inhibition (IC50) on CXCR4 [2] (cells pre-incubated with various concentrations, read-out: IC50, detection of CXCR4 by biotin-labeled TN14003 on pre-incubated cells) was below 1 nM. The “binding affinity to the ligand-binding site of CXCR4 on tumor cells” value at CXCR4 [2] (competition with biotin-labeled TN14003) is on record as “nano-molar concentration”. Also, the “angiogenic effect of SDF-1 on capillary tube formation” value in [7] is on record as “inhibited”. The “efficacy relative to TN14003” value in the series on metastatic 686LN cells was found to be 80%. Moreover, the “SHIV infection (p27 antigen levels)” value in the series with SHIV is “inhibited SHIV infection at all concentrations tested”. Besides, in series [4], the “SDF-1-stimulated phosphorylation of Akt” value is reported as “blocked”. The “cell viability of MDA-MB-231 cells” value with MDA-MB-231 cells [8] is “did not decrease cell viability”.

As to TN14003, in series [1], the “concentration attenuating Erk1/2 phosphorylation (in words)” value is reported as “sub-nano molar concentration”. The “CXCR4/SDF-1 mediated invasion of MDA-MB-231” value with MDA-MB-231 cells [6] is given as “blocked”. Moreover, the “angiogenic effect of SDF-1 on capillary tube formation” value in [7] is “inhibited”. In addition, the “effect on CXCR4 protein levels” value with CXCR4 [3] was “did not affect”. Besides, the “metastasis of 686LN cells to organs (FDG-PET)” value in the series with metastatic 686LN cells was “failed to metastasize to any organs”. The “concentration leading to 50% toxicity” value in the series on MT-4 cells is 410 µM. In addition, the EC50 in the series on HIV was 0.6 nM. Further, in series [4], the “concentration blocking Akt activation” value is on record as “sub-nano molar concentration” and the “SDF-1-stimulated phosphorylation of Akt” value was “blocked”. On CXCR4 [9], the “binding of biotin-labeled TN14003 to CXCR4 after SDF-1 preincubation” value is reported as “negative; also recorded: blocked”.
